Values of other authors as cited in patent US20260183325A1, “SUSTAINED OR IMMEDIATE RELEASE ENERGY, MENTAL FOCUS, AND PHYSICAL RECOVERY NUTRITIONAL SUPPLEMENT BLEND, DIETARY SUPPLEMENT, FUNCTIONAL FOOD AND FUNCTIONAL BEVERAGE” (Matchstick Brands, LLC, priority 2023, published 2026).

Conditions: during working memory processes (Koppelstatter et al. 2008)

Cn1c(=O)c2c(ncn2C)n(C)c1=O [caffeine]
fMRI signal changes in a network of brain areas associated with executive and attentional functions: increases
